Assay results reported in publication PMC9587031, “Antibiotic polymyxin arranges lipopolysaccharide into crystalline structures to solidify the bacterial membrane” (Nature Communications, 2022).
In brackets after ≈: the same amount, converted by molar mass. Positions of bridges follow the written chain, without caps; N, C: chain ends. Non-standard residues stand in square brackets, D forms with d. Residues, ends and D or L forms follow the SMILES beside them. *: point of attachment. Heptanoyl(6-Me) = CC(C)CCCCC(=O)*; Dab = NCC[C@H](N)C(=O)O

Key:
E. coli MG1655 WT = test: MIC, automated multi-well growth assay; type: cell-based, Escherichia coli; settings: for MIC: MG1655, 10 h
Procedure: All titration assays to measure the growth curve of E. coli MG1655 strains at different polymyxin concentrations were performed on a Tecan EVO 200 robotic platform in 96-well plates (cell culture microplates 96 well µClear® CELLSTAR®, Greiner Bio-One GmbH). Plates with serial dilutions of the tested polymyxin derivatives were prepared and overnight cultures of the strains were combined to a final OD600 ≈ 0.05. Titration culture plates were placed in a shaking platform equipped with a Kuhner ES-X shaking module (Adolf Kühner AG) mounted inside an aluminum housing (Tecan) and temperature-controlled using an “Icecube” (Life Imaging Services). Titration cultures were grown for 10 h at 37 °C with shaking at 300 rpm in clear-bottom 96-well plates, which were sealed with peelable foil with small slits (Agilent) to prevent liquid evaporation and guarantee sterility. OD600 measurements were recorded using a Tecan Infinite M200 Pro plater reader.

E. coli MG1655 MCR-1 = test: MIC, automated multi-well growth assay; type: cell-based, Escherichia coli; settings: E. coli MG1655 containing the MCR-1 plasmid, growth curves (Fig. 1b)
Description: In order to confer colistin resistance to the E. coli K-12 MG1655 strain and derivatives, an mcr-1 gene together with its native promoter region was cloned onto the pBR322 plasmid backbone, creating pAH213_mcr1. Briefly, the mcr-1 gene of colistin-resistant E. coli strain 2 HS-C was identified as gene E4F32_22195 on plasmid p2HS-C-1 (GenBank CP038181.1) and amplified together with ≈ 400 nucleotides of its immediate upstream region using primers prAH2159 and prAH2160. The backbone of pBR322 without its tetracycline resistance cassette was amplified using primers prAH1981 and prAH1982. Using 25 bp overhangs to the backbone included in prAH2159 / prAH2160, insert and backbone were ligated using Gibson assembly. The resulting plasmid pAH213_mcr1 confers colistin resistance to the E. coli K-12 MG1655 strain with a minimal inhibitory concentration of 5 µg/ml (empty vector and vector-free controls: 0.5 µg/ml). Robust growth of the E. coli K-12 MG1655 strains carrying pAH213_mcr1 was observed up to a concentration of 3 µg/ml. […]
All titration assays to measure the growth curve of E. coli MG1655 strains at different polymyxin concentrations were performed on a Tecan EVO 200 robotic platform in 96-well plates (cell culture microplates 96 well µClear® CELLSTAR®, Greiner Bio-One GmbH). […] OD600 measurements were recorded using a Tecan Infinite M200 Pro plater reader.

[1] = system: OM patches from E. coli MG1655 WT strain; test: AFM imaging of crystalline structure formation on OM patches; set-up: species or system Escherichia coli; settings: DPBS supplemented with 5 mM Mg2+ (MgCl2)
Procedure: E. coli MG1655 strains were transformed with the pY200 plasmid that carries an mCherry gene preceded by the periplasmic export signal of the skp protein under control of the lux promoter. This construct enables over-expression of mCherry into the periplasmic space, which in turn increases the OMV production. Cultures were grown in LB medium (Difco) with 50 µg/ml spectinomycin (Fischer Scientific) at 37 °C. Expression of mCherry was induced at an OD600 ≈ 0.4 by N-(β ketocaproyl)-L-homoserine lactone (HSL, Cayman Chemical). After induction, the cultures were grown until they reached the early stationary phase, and bacteria were removed by centrifugation at 10,000 g for 10 min. […]
OMVs produced from different E. coli MG1655 strains were adsorbed onto freshly cleaved mica for 15 min in DPBS buffer at room temperature. […] The images were recorded using two different AFM cantilevers: PEAKFORCE‐HiRs‐F‐A (Bruker) with a nominal spring constant of 0.4 N/m, a resonance frequency of ≈ 165 kHz in liquid, and a sharpened silicon tip with a nominal radius of ≈ 1 nm or SCANASYST-FLUID + (Bruker) with a nominal spring constant of 0.7 N/m, a resonance frequency of ≈ 150 kHz in liquid, and a sharpened silicon tip with a nominal radius of ≈ 2 nm. […] Images were recorded at 2 kHz oscillation frequency, by applying an imaging force of 100–120 pN with a vertical amplitude of 30 nm. […]

[2] = system: E. coli K-12 MG1655 carrying pAH213_mcr1; test: Colistin MIC, validation of plasmid pAH213_mcr1; type: cell-based, Escherichia coli
Description: (§1) In order to confer colistin resistance to the E. coli K-12 MG1655 strain and derivatives, an mcr-1 gene together with its native promoter region was cloned onto the pBR322 plasmid backbone, creating pAH213_mcr1. Briefly, the mcr-1 gene of colistin-resistant E. coli strain 2 HS-C was identified as gene E4F32_22195 on plasmid p2HS-C-1 (GenBank CP038181.1) and amplified together with ≈ 400 nucleotides of its immediate upstream region using primers prAH2159 and prAH2160. The backbone of pBR322 without its tetracycline resistance cassette was amplified using primers prAH1981 and prAH1982. Using 25 bp overhangs to the backbone included in prAH2159 / prAH2160, insert and backbone were ligated using Gibson assembly. The resulting plasmid pAH213_mcr1 confers colistin resistance to the E. coli K-12 MG1655 strain with a minimal inhibitory concentration of 5 µg/ml (empty vector and vector-free controls: 0.5 µg/ml). Robust growth of the E. coli K-12 MG1655 strains carrying pAH213_mcr1 was observed up to a concentration of 3 µg/ml. The plasmids were transferred to the cells using the transformation and storage solution (TSS) method.

[3] = system: E. coli K-12 MG1655 empty vector and vector-free controls; test: Colistin MIC, validation of plasmid pAH213_mcr1, controls; type: cell-based, Escherichia coli
Description: as §1

Row | MIC (E. coli MG1655 WT) [mg/L] | Molecule | MIC from bacterial growth curves (E. coli MG1655 WT; E. coli K-12 MG1655 WT, growth curves with increasing antibiotic concentration (Fig. 1b)) [mg/L] | polymyxin E concentration in which the strain was able to grow (E. coli MG1655 MCR-1) [mg/L] | polymyxin E concentration at which crystalline structures formed [1] [mg/L] | concentration up to which robust growth was observed ([2]; E. coli K-12 MG1655 strains carrying pAH213_mcr1) [µg/mL] | minimal inhibitory concentration ([2]; E. coli K-12 MG1655 with plasmid pAH213_mcr1) [µg/mL] | minimal inhibitory concentration [3] [µg/mL]
1 | 8 (≈ 7.77 µM) | CC(C)C[C@@H]1NC(=O)[C@@H](CC(C)C)NC(=O)[C@H](CCN)NC(=O)[C@@H](NC(=O)[C@H](CCN)NC(=O)[C@@H](NC(=O)[C@@H](N)CCN)[C@@H](C)O)CCNC(=O)[C@H]([C@@H](C)O)NC(=O)[C@H](CCN)NC(=O)[C@H](CCN)NC1=O [Polymyxin E intermediate-length] (H-[Dab]T[Dab][Dab][Dab][dL]L[Dab][Dab]T; lactam 4-C) | – | – | – | – | – | –
2 | 32 (≈ 27.7 µM) | CC(C)CCCCC(=O)N[C@@H](CCN)C(=O)N[C@H](C(=O)N[C@@H](CCN)C(=O)N[C@H]1CCNC(=O)[C@@H]([C@H](C)O)NC(=O)[C@H](CCN)NC(=O)[C@H](CCN)NC(=O)[C@H](CC(C)C)NC(=O)[C@@H](CC(C)C)NC(=O)[C@H](CCN)NC1=O)[C@@H](C)O [Polymyxin E with stereochemistry change] ({Heptanoyl(6-Me)}-[Dab]T[Dab][Dab][Dab][dL]L[Dab][Dab][dT]; lactam 4-C) | – | – | – | – | – | –
3 | – | Polymyxin E | 0.5 to 1 | 32 | 1.2 | ≤ 3 | 5 | 0.5
